Assay results published in patent US8624034B2, “Fluoro-pyridinone derivatives useful as antibacterial agents” (Pfizer Inc., priority 2011, dated 2014).
≈ marks a conversion by molar mass, not a printed value.

Columns and labels:
[1] = target: T1, Pseudomonas aeruginosa LpxC enzyme (Pseudomonas aeruginosa, UniProt P47205); assay: IC50 assay, LpxC enzyme from P. aeruginosa (PA LpxC enzyme IC50); format: biochemical; details: Table 3; LpxC enzyme 0.1 nM, 25° C., 1 hour; read-out: PA:IC50
T1 construct: made in house; host or cells: E. coli
T1 sequence (P47205 1-303): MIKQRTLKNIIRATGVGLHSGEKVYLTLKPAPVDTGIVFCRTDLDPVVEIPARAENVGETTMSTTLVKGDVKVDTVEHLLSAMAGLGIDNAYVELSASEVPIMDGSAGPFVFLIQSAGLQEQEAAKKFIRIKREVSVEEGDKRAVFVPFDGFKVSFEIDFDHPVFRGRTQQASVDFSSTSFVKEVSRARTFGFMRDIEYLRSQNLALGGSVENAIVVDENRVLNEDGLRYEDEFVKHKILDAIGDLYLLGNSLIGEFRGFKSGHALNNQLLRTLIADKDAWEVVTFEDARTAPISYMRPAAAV
Protocol: In order to assess the compounds biological activity, selected in vitro assays were conducted on selected compounds. One of the assays measured the compounds ability to disrupt the synthesis of lipopolysaccharide, LPS, which is a component of the outer membrane of Gram-negative bacteria. Disruption of this synthesis is lethal to the bacteria. The assay determined the compound's ability to inhibit LpxC, which is the first enzyme in the biosynthetic pathway for LPS (measured as IC50). Additionally, MICs (minimal inhibitory concentrations) were determined for several bacteria. The specific protocols are described below:
A) IC50 Assay, LpxC Enzyme from P. aeruginosa (Labeled as PA LpxC Enzyme IC50):
At the end of 1 hour, 5 ul of 1 N HCl was added to stop the enzyme reaction, the plates were centrifuged, and then processed with the BioTrove Rapidfire HTMS Mass Spectrometry System. A no-enzyme control was used in calculating the IC50 values from the percent conversion values.

[2] = system: Acinetobacter baumannii/haemolyticus, multidrug-resistant clinical isolate (AB-3167); assay: MIC determination, AB-3167; format: cell-based; details: Table 3, lower of duplicate values
Protocol: (§1) The in vitro antibacterial activity of compounds described in the Examples was evaluated by minimum inhibitory concentration (MIC) testing according to Clinical and Laboratory Standards Institute (CLSI). See: Clinical and Laboratory Standards Institute. Methods for Dilution Antimicrobial Susceptibility Tests for Bacteria that Grow Aerobically; Approved Standard-Eighth Edition. CLSI document M7-A8 [ISBN 1-56238-689-1]. Clinical and Laboratory Standards Institute, 940 West Valley Road, Suite 1400, Wayne, Pa. 19087-1898 USA, 2006; also Clinical and Laboratory Standards Institute. Performance Standards for Antimicrobial Susceptibility Testing; Twentieth Informational Supplement. CLSI document M100-S20 [ISBN 1-56238-716-2]. Clinical and Laboratory Standards Institute.
(§2) The MIC determination is a standard laboratory method for evaluating the antibacterial activity of a compound. The MIC represents the lowest drug concentration that inhibits visible growth of bacteria following overnight incubation. […] Typically, the drug concentration range is broken down into 2-fold increments (e.g. 0.06 μg/mL, 0.12 μg/mL. 0.25 μg/mL, 0.50 μg/mL, 1.0 μg/mL, etc.) and the various drug concentrations are all individually incubated overnight with approximately the same number of bacteria. The MIC is then determined by visually inspecting the drug effect at each concentration, and identifying the lowest drug concentration that has inhibited bacterial growth as compared to the drug free control. Typically, bacteria continue to grow at drug concentrations lower than the MIC and don't grow at concentrations at and above the MIC.
(§3) The MIC values described in Table 2 and 3 below were derived from assays wherein each test compound was evaluated in duplicate. In cases where the duplicate values varied by 0-2-fold, the lower of the two values was reported below. Generally speaking, if the duplicate values varied by more than 2-fold, the assay was considered non-valid and was repeated until the variation between duplicate runs was ≦2-fold. In line with the CLSI guidelines referred to above, both control organisms and reference compounds were utilized in each MIC assay to provide proper quality control. MIC values generated with these control organisms and reference compounds were required to fall within a defined range for the assay to be considered valid and be included herein. Those skilled in the art will recognize that MIC values can and do vary from experiment to experiment. Generally speaking, it should be recognized that MIC values often vary +/−2-fold from experiment to experiment. While a single MIC is reported for each compound and each microorganism, the reader should not conclude that each compound was only tested once. Several of the compounds were subjected to multiple tests. The data reported in Tables 2 and 3 is reflective of the compounds relative activity and different MICs may have been generated on these occasions in line with the guidelines described above.
(§4) The following bacterial strains were used in these MIC determinations:
2) Acinetobacter baumannii/haemolyticus: Multidrug-resistant clinical isolate labeled as AB-3167 in Tables 2 and 3;

[3] = system: Escherichia coli EC-1: VOGEL, mouse virulent; assay: MIC determination, EC-1; format: cell-based; details: Escherichia coli, read-out: EC-1 (MIC), Table 3, lower of duplicate values
Protocol: as §1, §2, §3, §4
3) Escherichia coli EC-1: VOGEL, mouse virulent labeled as EC-1 in Tables 2 and 3;

PA:UC12120 = assay: MIC determination, PA:UC12120 (Table 3); format: cell-based, Pseudomonas aeruginosa; details: Pseudomonas aeruginosa, UC12120, Table 3, lower of duplicate values
Protocol: as §1, §2, §3
In Table 3 below, column 1 corresponds to the Example number, column 2 provides the IUPAC name, columns 3-6 provide in vitro biological data generated in the same manner as in Table 2, columns 7 and 8 provide the retention times and mass spectra generated via LCMS, using the method described below. All data is not currently available for all compounds, as indicated by a blank cell in Table 3.

Structure (SMILES) | IC50 [1] | MIC [2] | MIC [3] | MIC (PA:UC12120)
COc1ccc(OC)c(-c2cc(=O)n(CCC(C)(C(=O)NO)S(C)(=O)=O)cc2F)c1 (stereo not drawn) [Example 54, 4-[4-(2,5-dimethoxyphenyl)-5-fluoro-2-oxopyridin-1(2H)-yl]-N-hydroxy-2-methyl-2-(methylsulfonyl)butanamide] | > 0.1 µM | > 64 µg/mL | > 64 µg/mL | > 64 µg/mL
CC(CCn1cc(F)c(-c2ccc(C#N)cc2)cc1=O)(C(=O)NO)S(C)(=O)=O (stereo not drawn) [Example 124, 4-[4-(4-cyanophenyl)-5-fluoro-2-oxopyridin-1(2H)-yl]-N-hydroxy-2-methyl-2-(methylsulfonyl)butanamide] | 0.0034 µM | > 64 µg/mL | 32 µg/mL (≈ 78.5 µM) | 8 µg/mL (≈ 19.6 µM)
CCOc1ccc(-c2cc(=O)n(CCC(C)(C(=O)NO)S(C)(=O)=O)cc2F)cc1F (stereo not drawn) [Example 95, 4-[4-(4-ethoxy-3-fluorophenyl)-5-fluoro-2-oxopyridin-1(2H)-yl]-N-hydroxy-2-methyl-2-(methylsulfonyl)butanamide] | 0.0012 µM | 64 µg/mL (≈ 144 µM) | 1 µg/mL (≈ 2.25 µM) | 2 µg/mL (≈ 4.5 µM)
CC(CCn1cc(F)c(-c2ccc(O)nc2)cc1=O)(C(=O)NO)S(C)(=O)=O (stereo not drawn) [Example 80, 4-(5′-fluoro-6-hydroxy-2′-oxo-3,4′-bipyridin-1′(2′H)-yl)-N-hydroxy-2-methyl-2-(methylsulfonyl)butanamide] | > 0.1 µM | > 64 µg/mL | > 64 µg/mL | > 64 µg/mL
CC(=O)Nc1ccc(-c2cc(=O)n(CCC(C)(C(=O)NO)S(C)(=O)=O)cc2F)cc1 (stereo not drawn) [Example 81, 4-[4-(4-acetamidophenyl)-5-fluoro-2-oxopyridin-1(2H)-yl]-N-hydroxy-2-methyl-2-(methylsulfonyl)butanamide] | 0.0243 µM | > 64 µg/mL | 64 µg/mL (≈ 146 µM) | 32 µg/mL (≈ 72.8 µM)
CC(CCn1cc(F)c(-c2cccc(C#N)c2)cc1=O)(C(=O)NO)S(C)(=O)=O (stereo not drawn) [Example 82, 4-[4-(3-cyanophenyl)-5-fluoro-2-oxopyridin-1(2H)-yl]-N-hydroxy-2-methyl-2-(methylsulfonyl)butanamide] | 0.013 µM | > 64 µg/mL | 64 µg/mL (≈ 157 µM) | 8 µg/mL (≈ 19.6 µM)
CC(CCn1cc(F)c(-c2ccc(Cl)cc2F)cc1=O)(C(=O)NO)S(C)(=O)=O (stereo not drawn) [Example 66, 4-[4-(4-chloro-2-fluorophenyl)-5-fluoro-2-oxopyridin-1(2H)-yl]-N-hydroxy-2-methyl-2-(methylsulfonyl)butanamide] | 0.0008 µM | 64 µg/mL (≈ 147 µM) | 0.5 µg/mL (≈ 1.15 µM) | 0.5 µg/mL (≈ 1.15 µM)
CC(CCn1cc(F)c(-c2cccc(CO)c2F)cc1=O)(C(=O)NO)S(C)(=O)=O (stereo not drawn) [Example 122, 4-{5-fluoro-4-[2-fluoro-3-(hydroxymethyl)phenyl]-2-oxopyridin-1(2H)-yl}-N-hydroxy-2-methyl-2-(methylsulfonyl)butanamide] | 0.0024 µM |  |  | 
COc1cc(C#N)cc(-c2cc(=O)n(CCC(C)(C(=O)NO)S(C)(=O)=O)cc2F)c1 (stereo not drawn) [Example 119, 4-[4-(3-cyano-5-methoxyphenyl)-5-fluoro-2-oxopyridin-1(2H)-yl]-N-hydroxy-2-methyl-2-(methylsulfonyl)butanamide] | 0.0508 µM | > 64 µg/mL | > 64 µg/mL | 64 µg/mL (≈ 146 µM)
CC(C)(C#N)c1ccc(-c2cc(=O)n(CCC(C)(C(=O)NO)S(C)(=O)=O)cc2F)cc1 (stereo not drawn) [Example 60, 4-{4-[4-(1-cyano-1-methylethyl)phenyl]-5-fluoro-2-oxopyridin-1(2H)-yl}-N-hydroxy-2-methyl-2-(methylsulfonyl)butanamide] | 0.0039 µM | > 64 µg/mL | 32 µg/mL (≈ 71.2 µM) | 4 µg/mL (≈ 8.9 µM)
CC(CCn1cc(F)c(-c2ccc(C(F)(F)F)nc2)cc1=O)(C(=O)NO)S(C)(=O)=O (stereo not drawn) [Example 113, 4-[5′-fluoro-2′-oxo-6-(trifluoromethyl)-3,4′-bipyridin-1′(2′H)-yl]-N-hydroxy-2-methyl-2-(methylsulfonyl)butanamide] | 0.0296 µM | > 64 µg/mL | > 64 µg/mL | 32 µg/mL (≈ 70.9 µM)
COc1ccccc1-c1cc(=O)n(CCC(C)(C(=O)NO)S(C)(=O)=O)cc1F (stereo not drawn) [Example 125, 4-[5-fluoro-4-(2-methoxyphenyl)-2-oxopyridin-1(2H)-yl]-N-hydroxy-2-methyl-2-(methylsulfonyl)butanamide] | 0.0129 µM | > 64 µg/mL | 64 µg/mL (≈ 155 µM) | 8 µg/mL (≈ 19.4 µM)
CN(C)c1ncc(-c2cc(=O)n(CCC(C)(C(=O)NO)S(C)(=O)=O)cc2F)cn1 (stereo not drawn) [Example 115, 4-{4-[2-(dimethylamino)pyrimidin-5-yl]-5-fluoro-2-oxopyridin-1(2H)-yl}-N-hydroxy-2-methyl-2-(methylsulfonyl)butanamide] | 0.0741 µM | > 64 µg/mL | 32 µg/mL (≈ 74.9 µM) | 32 µg/mL (≈ 74.9 µM)
CN1Cc2cc(-c3cc(=O)n(CCC(C)(C(=O)NO)S(C)(=O)=O)cc3F)ccc2C1=O (stereo not drawn) [Example 64, 4-[5-fluoro-4-(2-methyl-1-oxo-2,3-dihydro-1H-isoindol-5-yl)-2-oxopyridin-1(2H)-yl]-N-hydroxy-2-methyl-2-(methylsulfonyl)butanamide] | 0.0072 µM | > 64 µg/mL | > 64 µg/mL | 64 µg/mL (≈ 142 µM)
CN1Cc2ccc(-c3cc(=O)n(CCC(C)(C(=O)NO)S(C)(=O)=O)cc3F)cc2C1=O (stereo not drawn) [Example 57, 4-[5-fluoro-4-(2-methyl-3-oxo-2,3-dihydro-1H-isoindol-5-yl)-2-oxopyridin-1(2H)-yl]-N-hydroxy-2-methyl-2-(methylsulfonyl)butanamide] | 0.021 µM | > 64 µg/mL | > 64 µg/mL | > 64 µg/mL
CC(CCn1cc(F)c(-c2ccc(F)c(CO)c2)cc1=O)(C(=O)NO)S(C)(=O)=O (stereo not drawn) [Example 105, 4-{5-fluoro-4-[4-fluoro-3-(hydroxymethyl)phenyl]-2-oxopyridin-1(2H)-yl}-N-hydroxy-2-methyl-2-(methylsulfonyl)butanamide] |  | > 64 µg/mL | > 64 µg/mL | > 64 µg/mL
CC(CCn1cc(F)c(-c2cccc(CC(N)=O)c2)cc1=O)(C(=O)NO)S(C)(=O)=O (stereo not drawn) [Example 123, 4-{4-[3-(2-amino-2-oxoethyl)phenyl]-5-fluoro-2-oxopyridin-1(2H)-yl}-N-hydroxy-2-methyl-2-(methylsulfonyl)butanamide] |  | > 64 µg/mL | > 64 µg/mL | > 64 µg/mL
CC(CCn1cc(F)c(-c2cc[nH]n2)cc1=O)(C(=O)NO)S(C)(=O)=O (stereo not drawn) [Example 121, 4-[5-fluoro-2-oxo-4-(1H-pyrazol-3-yl)pyridin-1(2H)-yl]-N-hydroxy-2-methyl-2-(methylsulfonyl)butanamide] |  | > 64 µg/mL | > 64 µg/mL | > 64 µg/mL
